In patent US11931335B2, “Enhancing autophagy or increasing longevity by administration of urolithins or precursors thereof” (Amazentis SA, priority 2012, dated 2024):
Entries after “also recorded” stand apart in the source; their conditions may differ.

Columns and labels:
[1] = tested on: sir-2.1(ok434) mutant C. elegans; experiment: Lifespan assay, sir-2.1 mutant C. elegans; type: in vivo
Protocol: (§1) Lifespan assays were performed with (A) wild-type (N2), (B) sir-2.1(ok434) mutant, (C) aak-2(ok524), (D) daf-16(mu86), (E) eat-2(ad465) and (F) daf-2(e1370) mutant strains of C. elegans maintained during their full life on plates supplemented with either 50 μM of urolithin A or with a control treatment and seeded with OP50 bacteria. Control plates without urolithin A contained an equivalent concentration of DMSO. Worm lifespan assays were performed at 20° C.
sir-2.1: sir-2.1 encodes the mammalian homolog of the NAD-dependent deacetylase SIRT1 in C. elegans. SIR-2.1/SIRT1 activity is mediated by NAD^+ level and is well described to be involved in longevity regulation in yeast, C. elegans, and Drosophila in response to caloric restriction.

[2] = tested on: eat-2(ad465) mutant C. elegans; experiment: Lifespan assay, eat-2 mutant C. elegans; type: in vivo
Protocol: as §1
eat-2 encodes a protein involved in pharyngeal pumping.

[3] = tested on: C. elegans strain DA2122 (LGG-1::GFP); experiment: Autophagy induction, LGG-1::GFP dots in C. elegans; type: in vivo; settings: 50 μM from eggs to second day of adulthood; FIGS. 9A-9B
Protocol: C. elegans strains were cultured at 20° C. on nematode growth media (NGM) agar plates seeded with OP50 bacteria and containing 50 μM urolithin A or a corresponding concentration of DMSO as a control. The worms were treated from eggs to the second day of the adulthood. The strains used were the DA2122 (adIs2122[lgg-1::GFP+rol-6(su1006)]), which is a transgenic line expressing the LGG-1 protein (homolog of LC3 in human) fused with the green fluorescent protein (GFP). For picture acquisition, worms were immobilized with tetramisole (Sigma) and mounted on 6% agarose pads on glass slides. Images were acquired using Zeiss LSM 700 upright confocal microscope (Carl Zeiss A G, Oberkochen, Germany) from the same part of C. elegans. For each condition multiple worms were observed and imaged with the same initial parameters. Image processing and quantification of autophagic events was performed with the Fiji software.

[4] = tested on: C. elegans fed vps-34 RNAi; experiment: Lifespan with RNAi against vps-34; type: in vivo; settings: 50 μM; vs empty vector; FIG. 10B
Protocol: Lifespan tests were performed as described. Mouchiroud L et al. (2011) Aging Cell 10:39-54. Briefly, worms were observed using a Nikon SMZ1500 stereomicroscope (Nikon, Melville, NY, USA). Briefly, 10 L4 worms were transferred on plates containing NGM medium with vehicle (DMSO 0.1%, final concentration) or urolithin A dissolved in DMSO (final concentration 50 μM) and seeded with E. coli RNAi clones as indicated. After 3 days (corresponding to day 0), newly developed 60-100 L4 worms were used per condition, scored and transferred to fresh plates every 3 days starting from day 1 (young adult worms). All lifespan experiments were performed at 20° C.
Survival analyses were performed using the Kaplan Meier method and the significance of differences between survival curves calculated using the log rank test. Differences between two groups were assessed using two-tailed t-tests. Analysis of variance, assessed by Bonferroni's multiple comparison test, was used when comparing more than two groups. The statistical software used was GraphPad Prism 5 (GraphPad Software, Inc.) and all p-values <0.05 were considered significant.
Gene silencing was carried out as previously described by using the RNA interference (RNAi) process. Mouchiroud L et al. (2011) Aging Cell 10:39-54. In C. elegans, RNAi is made by feeding. […]

[5] = tested on: C. elegans wild type (N2, Bristol); experiment: Mobility tracking of C. elegans during aging; type: in vivo; settings: days 1, 3, 5 and 8 of adulthood; 50 μM; FIG. 12
Protocol: To examine the effect of urolithins on muscle activity during aging, C. elegans mobility was examined over time. Synchronized populations of wild-type nematodes were prepared by standard methods and cultivated at 20° C. on NGM agar containing E. Coli (OP50) with or without test compounds (ellagic acid (EA), urolithins A (UA), and B (UB)). At Day 0, five plates were prepared, each containing 10 young adult worms. Worms were assayed for mobility at different ages, day 1, 3, 5 and 8 of adulthood. The wild type (N2, Bristol) worm strain was employed for these studies.
For C. elegans movement tracking, 45 seconds of video were recorded using a Nikon DS-L2/DS-Fi1 camera and controller setup, attached to both a computer and a standard bright field microscope, tracking an entire plate of 10 worms, with 5 plates per condition. The movement of worms during this time was calculated using an adapted version of the freely-available software Parallel Worm Tracker for MATLAB. The total movement over the 45 second tracking was averaged across all worms for each condition. This experiment was repeated twice with between 40 and 70 worms per condition.

[6] = tested on: aged C57BL/6J mice; experiment: Locomotor activity by infrared detection in aged mice; type: in vivo, mouse; settings: 50 mg/kg/day, 34 weeks, 12 hour dark period, FIG. 23
Protocol: (§2) Locomotor activity may be also assessed by measuring animal movements using infrared detection. To determine the effects of urolithin A on spontaneous locomotor activity in aged animals, 16-month-old C57BL/6J mice were treated with either a standard rodent diet or a diet containing urolithin A mixed with food to reach a dosing of 50 mg/kg/day delivered to mice. Following 34 weeks of treatment with urolithin A, mice were placed in a locomotor activity monitoring system, TSE Systems. Infrared transmitters and receivers are placed in the x, y, and z axis. Interruption of the infrared beams in the x, y axis by the passage of the mouse, allows for a measurement of the horizontal movement (ambulation). Interruption of the infrared beams in the z axis by the mouse, allows for the measurement of rearing behavior. Each beam interruption results in one count being recorded. Total counts were measured for each 30 minute period over a two day period. The total counts observed during the 12 hour dark period, which corresponds to the time of highest activity in mice, were summed for each animal.

[7] = tested on: gastrocnemius muscles of aged C57BL/6J mice; experiment: Autophagy in skeletal muscle of aged mice; type: in vivo, mouse; settings: 50 mg/kg/day in food, 34 weeks
Protocol: as §2
Following 34 weeks of treatment, the mice from Example 19 were sacrificed and the organs were collected. The gastrocnemius muscles were assessed for the presence of autophagy by the assessment of the change in the ratio of the autophagy markers LC3 and p62 using western blot analysis. Each lane corresponds to a muscle sample from an individual mouse. The ratio of LC3-II/LC3-I increased in the muscles of urolithin A (UA)-treated mice versus untreated mice. This was accompanied by a decrease in the levels of p62 in the muscles of UA treated versus untreated mice. These shifts in the levels of LC3 and p62 in the muscle of mice are consistent with an increase in the level of autophagy taking place.

In the case of `O=c1oc2cc(O)ccc2c2ccc(O)cc12` [Urolithin A, urolithin A], the “Median lifespan” value ([1]; sir-2.1(ok434), 50 μM UA) is reported as 23 days, the “Lifespan extension compared to control (%)” value ([1]; sir-2.1(ok434), 50 μM UA vs 1% DMSO) is reported as “+9.5%” and the “activity of urolithin A on the extension of median lifespan” value ([1]; sir-2.1 mutant) is reported as “completely suppressed”. For the same compound, the “Median lifespan” value ([2]; 50 μM UA) was 37 days, the “Lifespan extension compared to control (%)” value ([2]; 50 μM UA vs 1% DMSO) was “+76.2%” and the “number of autophagic events (LGG-1::GFP dots per focal field)” value [3] was “increases the number of autophagic events”. For the same compound, the “lifespan extension by urolithin A under vps-34 RNAi” value [4] was “suppressed; also recorded: totally suppress the lifespan phenotype”, the “age related mobility decline” value [5] was “marked ability to reduce muscle function decline” and the increase in ambulation [6] was 14%. For the same compound, the increase in rearing [6] was 25%, the “levels of p62” value [7] was “decreased” and the “ratio of p-AMPKα/AMPKα” value [7] was “increase”. For the same compound, the “ratio of LC3-II/LC3-I” value ([7]; FIG. 24) was “increased” and the “levels of p62” value ([7]; listed as UA) was “decrease”.
